Results as given in PMC7927146, “Discovery of an Orally Available Diazabicyclooctane Inhibitor (ETX0282) of Class A, C, and D Serine β-Lactamases” (Journal of Medicinal Chemistry, 2020).
Counter-ions that a name gives are not always drawn.

Columns and labels:
E. coli TEM-1 (Class A) = E. coli TEM-1 (Class A) (Escherichia coli, UniProt P62593); assay: β-lactamase inhibition, nitrocefin hydrolysis progress curves; assay type: biochemical; details: supplement CSV; incubation time not given, values correspond to 60 min
[1] = system: K. pneumoniae ARC561 (OKP-6, AmpC, OXA-2, SHV-18) ATCC700603; assay: Broth microdilution MIC (BLI alone, cefpodoxime, cefpodoxime + BLI); assay type: cell-based; details: for MIC: Klebsiella pneumoniae, ATCC700603
[2] = molecular target: P. aeruginosa AmpC (Class C) (Pseudomonas aeruginosa, UniProt P24735); assay: β-lactamase inhibition, nitrocefin hydrolysis progress curves; assay type: biochemical
[3] = molecular target: K. pneumoniae OXA-48 (Class D) (Klebsiella pneumoniae, UniProt Q6XEC0); assay: biochemical
[4] = cited from earlier work
[5] = system: E. coli ARC3627 (OXA-1, AmpC, CTX-M-15, TEM-1); assay: Broth microdilution MIC (BLI alone, cefpodoxime, cefpodoxime + BLI); assay type: cell-based; details: for MIC: Escherichia coli
log D = assay type: physicochemical
[6] = Stability in intestinal S9 fraction; assay type: in vitro ADME, rat; details: for half-life at 10 μM: rat, intestinal S9 fraction, pH 7.4
Description: (§1) Liver and intestinal S9 subcellular fractions (Xenotech) from rat and human tissue were diluted to a protein concentration of 0.8 mg/mL in 100 mM potassium phosphate buffer, pH 7.4, and preincubated in a 37 °C water bath for 5 min prior to addition of 10 μM (final) of compound of interest. Serial aliquots were removed at 0, 2, 5, 10, 20, 40, and 60 min and quenched in acetonitrile with internal standard prior to LC/MS/MS[30] to determine concentrations of prodrug. First order degradation half-lives were determined from the slope of the log–linear plots of the depletion data.

[7] = Stability in intestinal S9 fraction; assay type: in vitro ADME, human; details: for half-life at 10 μM: human, intestinal S9 fraction, pH 7.4
Description: as §1

[8] = Stability in liver S9 fraction; assay type: in vitro ADME, rat; details: 37 °C; for Half-life, Rat liver S9: 0.8 mg/mL protein, 10 μM
Description: as §1

[9] = Stability in liver S9 fraction; assay type: in vitro ADME, human; details: 37 °C; for Half-life, Human liver S9: 0.8 mg/mL protein, 10 μM
Description: as §1

[10] = Buffer stability of ester prodrugs; assay type: physicochemical; details: potassium phosphate buffer pH 7.4, 37 °C; for Half-life, pH 7.4 buffer: 10 μM
Description: Buffer stability (potassium phosphate buffer, pH 7.4) was evaluated using the same protocol but without adding the S9 subcellular fractions.

[11] = system: E. coli ARC2687 (CTX-M-14, AmpC); assay: Broth microdilution MIC; assay type: cell-based; details: Escherichia coli, agent alone
Description: (§2) The potency and spectrum of β-lactamase inhibition by ETX1317 supported further antibacterial profiling in combination with β-lactams against relevant Gram-negative clinical isolates. Approved penicillins and cephalosporins administered orally were evaluated, using not only MIC as a criterion but also oral bioavailability, approved dose levels, and unbound plasma exposures. Cefpodoxime (CPD) emerged as the lead β-lactam candidate.[30] Its approved use as an orally bioavailable proxetil ester prodrug to treat UTI infections was also aligned with our potential target product profile. A fixed 1:2 ratio of cefpodoxime/ETX1317 was utilized as the testing paradigm for antimicrobial susceptibility. […] The addition of ETX1317 to CPD restored its activity to ≤0.5 μg/mL across all Enterobacterales isolates tested, including the CRE strains (identified by “a” in Table 6).
(§3) The broth microdilution susceptibility testing was conducted according to CLSI[39] using CAMHB. Durlobactam and avibactam were synthesized at Entasis Therapeutics. Cefpodoxime (catalog no. J66225) was purchased from Alfa Aesar.

[12] = molecular target: class A, C, and D serine β-lactamases; assay: β-lactamase inhibition, statements over the enzyme panel; assay type: biochemical; details: 60 min; TEM-1, AmpC, OXA-48; read-out: IC50 against β-lactamases, all values
Description: The spectrum of class A, C, and D β-lactamase inhibition by ETX1317 was evaluated by measuring its ability to protect the β-lactamase substrate nitrocefin from degradation using previously described methods.[13]
The methods used to measure inhibition of β-lactamases were the same as those described in the supplement to Durand-Reville et al.[13] Reaction progress curves at 490 nm for hydrolysis of the chromogenic β-lactamase substrate nitrocefin (SynGene, Bangalore, India) at 100 μM were measured for a range of inhibitor concentrations in 0.1 M sodium phosphate (pH 7.0), 10 mM NaHCO3, and 0.005% Triton X-100 at ambient temperature using a Spectramax absorbance plate reader (Molecular Devices, Sunnyvale, CA). The set of 12 progress curves were fit globally to a second-order kinetic model of enzyme inactivation. […] The second-order inactivation rate constant kinact/Ki was calculated from the set of progress curves using Global Kinetic Explorer (Kintek) as previously described.[13]

E. coli ARC2687 = assay: Neutropenic mouse thigh infection model; assay type: in vivo; details: CPDP alone, po, q6h
[13] = system: MDR Enterobacterales clinical isolates; assay: Broth microdilution MIC, statements over the isolate panel; assay type: cell-based; details: read-out: MIC across the clinical isolates of Table 6
Description: as §2, §3

[14] = Intravenous and oral pharmacokinetics in rats; details: rat, 10 mg/kg equivalent dose of ETX1317
[15] = Phase 1 clinical trials in healthy volunteers (NCT03491748); assay type: in vivo, human; details: alone or in combination with cefpodoxime proxetil
Description: (§4) The safety of ETX0282 was investigated with a 14-day toxicology study under Good Laboratory Practice (GLP) in rats and dogs following daily oral administration. The doses of 500 mg kg^–1 day^–1 and 400 mg kg^–1 day^–1 were established as the NOAELs (no observed adverse effect level) for rats and dogs, respectively.

[16] = 14-day GLP toxicology study, daily oral administration; details: in vivo
Description: as §4

[17] = 0.8 mg/mL protein, 10 μM, 37 °C
[18] = species not given in the sentence, read-out: t1/2, stability to intestinal esterases

Sequence of E. coli TEM-1 (Class A) (P62593 24-286 limits assumed): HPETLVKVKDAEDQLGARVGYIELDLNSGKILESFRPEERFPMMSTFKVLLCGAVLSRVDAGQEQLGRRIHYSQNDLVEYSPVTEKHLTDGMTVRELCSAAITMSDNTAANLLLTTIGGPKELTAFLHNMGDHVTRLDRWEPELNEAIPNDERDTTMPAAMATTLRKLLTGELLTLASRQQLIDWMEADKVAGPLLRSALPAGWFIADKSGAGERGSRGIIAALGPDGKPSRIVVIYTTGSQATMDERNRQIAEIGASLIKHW
Sequence of P. aeruginosa AmpC (Class C) (P24735 27-397): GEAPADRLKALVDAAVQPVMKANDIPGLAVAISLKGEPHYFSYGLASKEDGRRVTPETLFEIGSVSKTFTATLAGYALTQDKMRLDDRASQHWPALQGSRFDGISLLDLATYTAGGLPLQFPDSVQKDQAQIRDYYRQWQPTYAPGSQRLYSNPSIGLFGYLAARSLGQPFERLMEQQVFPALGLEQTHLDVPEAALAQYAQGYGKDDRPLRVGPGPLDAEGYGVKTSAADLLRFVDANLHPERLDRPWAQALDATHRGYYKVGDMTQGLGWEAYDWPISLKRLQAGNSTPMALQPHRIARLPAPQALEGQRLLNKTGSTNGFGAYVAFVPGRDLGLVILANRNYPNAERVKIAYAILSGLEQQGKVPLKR
Sequence of K. pneumoniae OXA-48 (Class D) (Q6XEC0 23-265, looked up): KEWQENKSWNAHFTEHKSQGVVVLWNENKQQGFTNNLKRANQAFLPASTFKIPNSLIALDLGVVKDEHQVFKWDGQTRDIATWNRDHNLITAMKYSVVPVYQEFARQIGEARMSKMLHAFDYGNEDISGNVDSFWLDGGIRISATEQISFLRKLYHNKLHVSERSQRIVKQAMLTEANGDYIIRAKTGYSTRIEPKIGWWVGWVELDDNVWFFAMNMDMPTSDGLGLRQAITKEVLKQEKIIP

Molecule `CC1=C[C@@H](C(N)=O)N2C[C@@H]1N(O[C@H](F)C(=O)O)C2=O` [Compound 13, (2R)-2-(((2S,5R)-2-Carbamoyl-4-methyl-7-oxo-1,6-diazabicyclo[3.2.1]oct-3-en-6-yl)oxy)-2-fluoroacetic Acid Lithium Salt] has an IC50 (E. coli TEM-1 (Class A)) of 0.003 µM, an MIC [1] of 16 µg/mL and an IC50 ([2]; IC50 (µM) P. aeruginosa AmpC (Class C), supplement CSV, incubation time not given, values correspond to 60 min) of 0.16 µM.
For `CC1=C[C@@H]2CN(C(=O)N2OS(=O)(=O)O)[C@@H]1C(N)=O` [Durlobactam, durlobactam], the IC50 ([3]; IC50 10 min, 10 min incubation) is listed as 24 ± 6 nM, the IC50 ([3]; IC50 60 min, 60 min incubation) is listed as 5 nM and the “oral bioavailability F” value [4] is listed as under 10%. For the same molecule, the MIC [5] was 0.25 µg/mL, the MIC [1] was 8 µg/mL and the logD (log D) was under 0. The IC50 ([2]; IC50 10 min, P. aeruginosa AmpC (Class C), 10 min incubation) was 0.008 ± 0.003 µM and the IC50 ([2]; IC50 60 min, P. aeruginosa AmpC (Class C), 60 min incubation) was 0.0058 µM.
`CCOC(=O)[C@H](F)ON1C(=O)N2C[C@H]1C=C(C)[C@H]2C(=O)NCCNS(N)(=O)=O` [Compound 19] showed a half-life at 10 μM ([6]; 0.8 mg/mL protein, 10 μM, 37 °C, read-out: Half-life, Rat intestinal S9) of 20 min, a half-life at 10 μM ([7]; 0.8 mg/mL protein, 10 μM, 37 °C, read-out: Half-life, Human intestinal S9) of 22 min and a half-life at 10 μM ([8]; rat, liver S9 fraction, pH 7.4, 0.8 mg/mL protein) of 10 min. It also gave a half-life at 10 μM ([9]; human, liver S9 fraction, pH 7.4, 0.8 mg/mL protein) of 9.9 min and a half-life at 10 μM ([10]; potassium phosphate buffer without S9 fractions) of 26 min.
`C[C@@H](O)[C@H]1C(=O)N2C(C(=O)O)=C(S[C@@H]3CN[C@H](C(=O)N(C)C)C3)[C@H](C)[C@H]12` [meropenem] gave an MIC [11] of 0.03 µg/mL.
With `CC1=C[C@@H]2CN(C(=O)N2O[C@H](F)C(=O)O)[C@@H]1C(N)=O` [Compound 4] the IC50 (E. coli TEM-1 (Class A)) was 0.001 µM, the “fold reduction of cefpodoxime MIC compared to the MIC with no BLI” value ([5]; E. coli ARC3627, BLI 4 μg/mL) was “greater than 128 fold” and the “fold reduction of cefpodoxime MIC compared to the MIC with no BLI” value ([1]; K. pneumoniae ARC561, BLI 4 μg/mL) was “greater than 128 fold”.
Molecule `C[C@H]1COc2c(N3CCN(C)CC3)c(F)cc3c(=O)c(C(=O)O)cn1c23` [levofloxacin] has an MIC [11] of over 4 µg/mL.
For `CC1=C[C@@H]2CN(C(=O)N2OC(F)(F)C(=O)O)[C@@H]1C(N)=O` [Compound 2], the IC50 (E. coli TEM-1 (Class A)) was 0.001 µM and the IC50 [12] was under 15 nM.
With `CCOC(=O)[C@@H](F)ON1C(=O)N2C[C@H]1C=C(C)[C@H]2C(N)=O` [Compound 15] the “Half-life, Rat intestinal S9” value [6, 17] was 39 min, the “Half-life, Human intestinal S9” value [7, 17] was 38 min and the “Half-life, Rat liver S9” value [8] was 4.4 min. For the same molecule, the “Half-life, Human liver S9” value [9] was 6.5 min and the “Half-life, pH 7.4 buffer” value [10] was 41 min.
For `COCC1=C(C(=O)OC(C)OC(=O)OC(C)C)N2C(=O)[C@@H](NC(=O)/C(=N\OC)c3csc(N)n3)[C@H]2SC1` (stereo partly drawn) [CPDP, cefpodoxime proxetil], the “efficacy in thigh model” value (E. coli ARC2687) was “not efficacious”.
Molecule `COCC1=C(C(=O)O)N2C(=O)[C@@H](NC(=O)/C(=N\OC)c3csc(N)n3)[C@H]2SC1` [cefpodoxime] has an MIC [13] of over 64 µg/mL.
Molecule `CC1=C[C@@H]2CN(C(=O)N2O[C@H](F)C(=O)OC(C)C)[C@@H]1C(N)=O` [Compound 16] has a half-life at 10 μM [6, 18] of over 120 min and a half-life at 10 μM [7, 18] of over 120 min.
With `CC1=C[C@@H](C(N)=O)N2C[C@@H]1N(O[C@@H](F)C(=O)O)C2=O` [Compound 14] the MIC [5] was 0.5 µg/mL.
For `CC1=C[C@@H](C(N)=O)N2C[C@@H]1N(O[C@H](F)C(=O)OC(C)C)C2=O` [Compound 23, (2R)-Isopropyl 2-(((2S,5R)-2-Carbamoyl-4-methyl-7-oxo-1,6-diazabicyclo[3.2.1]oct-3-en-6-yl)oxy)-2-fluoroacetate], the “Half-life, Rat intestinal S9” value [6, 17] was 240 min, the “Half-life, Human intestinal S9” value [7, 17] was 163 min and the “Half-life, Rat liver S9” value [8] was 32 min. For the same molecule, the “circulating concentrations of ETX0282 after oral ETX0282” value [14] was “no circulating concentrations of ETX0282 observed”, the serious adverse events [15] was “no serious adverse events reported” and the tolerability [15] was “generally well-tolerated”. The “Half-life, Human liver S9” value [9] was 39 min, the NOAEL at 14 day ([16]; dog, dogs) was 400 mg/kg/day and the NOAEL at 14 day ([16]; rat, rats) was 500 mg/kg/day. For the same molecule, the “Half-life, pH 7.4 buffer” value [10] was 186 min.
With `CCOC(=O)[C@@H](F)ON1C(=O)N2C[C@H]1C(C)=C[C@H]2C(N)=O` [Compound 22, Ethyl (2R)-2-[[(2S,5R)-2-Carbamoyl-4-methyl-7-oxo-1,6-diazabicyclo[3.2.1]oct-3-en-6-yl]oxy]-2-fluoro-acetate] the “Half-life, Rat intestinal S9” value [6, 17] was 42 min, the “Half-life, Human intestinal S9” value [7, 17] was 35 min and the “Half-life, Rat liver S9” value [8] was 20 min. The “Half-life, Human liver S9” value [9] was 27 min and the “Half-life, pH 7.4 buffer” value [10] was 44 min.
With `CC1=C[C@@H](C(N)=O)N2C[C@@H]1N(O[C@@H](F)C(=O)OC(C)C)C2=O` [Compound 21] the “Half-life, Rat intestinal S9” value [6, 17] was 68 min, the “Half-life, Human intestinal S9” value [7, 17] was 36 min and the “Half-life, Rat liver S9” value [8] was 3 min. The “Half-life, Human liver S9” value [9] was 8.5 min and the “Half-life, pH 7.4 buffer” value [10] was 91 min.
For `CCOC(=O)[C@H](F)ON1C(=O)N2C[C@H]1C(C)=C[C@H]2C(N)=O` [Compound 20], the “Half-life, Rat intestinal S9” value [6, 17] was 18 min, the “Half-life, Human intestinal S9” value [7, 17] was 6.9 min and the “Half-life, Rat liver S9” value [8] was 2.4 min. For the same molecule, the “Half-life, Human liver S9” value [9] was 2.4 min and the “Half-life, pH 7.4 buffer” value [10] was 22 min.
For `NC(=O)[C@@H]1CC[C@@H]2CN1C(=O)N2OS(=O)(=O)O` [Avibactam, avibactam], the “oral bioavailability F” value [4] is listed as under 10% and the logD (log D) is listed as under 0.
